Data: paper PMC9099682 (2022)

How the values were obtained:
[1] = test system: Pu22 (DNA, G4) TGAGGGTGGGTAGGGTGGGTAA; assay: CD spectroscopy; conditions: K+ 4.5 mM, Na+ (137 mM NaCl, 10 mM Na2HPO4); PBS pH 7.4, 40 °C; 125 µM tPD, 2.5 µM DNA; CD band increase at 263 nm
[2] = test system: Pu22 (DNA, G4) TGAGGGTGGGTAGGGTGGGTAA; assay: CD melting at 265 nm; conditions: K+ 4.5 mM, Na+ (137 mM NaCl, 10 mM Na2HPO4); PBS pH 7.4; 125 µM tPD, 2.5 µM DNA (50 equiv.); Tm 62 to 64 °C

binding [1]: yes | ΔTm [2]: +2 °C
Structure (SMILES): OC[C@H]1O[C@@H](Oc2cc(O)cc(/C=C/c3ccc(O)cc3)c2)[C@H](O)[C@@H](O)[C@@H]1O
